For data set [1], the target named is T1, [3H]ifenprodil binding, adult rat forebrain membranes (NMDA receptor) (Rattus norvegicus, UniProt P35439+Q00960).
T1 construct: membrane fraction was prepared from frozen adult rat forebrains; tissue Zivic-Miller Laboratories, Inc; host or cells: adult rat forebrain, buffy coat membrane fraction
In words: [3H]Ifenprodil binding assay. Conditions: 4 nM [3H]-ifenprodil, 2 hours at room temperature, pH 7.4. How it is done: All buffers and reagents used in assay incubations or to dissolve drugs were prepared using water purified through a Milli-Q reverse osmosis system (Millipore Corp, Bedford, Mass.) and treated with UV emissions. Prior to use in the assays, buffers were further filtered through a sterile Corning filtration unit (Corning Glass Works, Corning, N.Y.) containing a 0.2-μm filter. Buffer used to rinse the membranes on the assay filters was prepared with purified water, but was not refiltered and was stored no longer than 5 days. Stock solutions of the drugs (usually 10 mM) were dissolved in 20 mM HEPES-KOH buffer pH 7.4 (assay buffer) with the addition of 1 to 5 μL of glacial AcOH, if needed, to keep them in solution. For eliprodil the stock solution was buffer with the addition of 10% DMSO. All subsequent dilutions from stock were made in buffer.
An extensively washed buffy coat membrane fraction was prepared from frozen adult rat forebrains (Zivic-Miller Laboratories, Inc, Zelienople, Pa.) as described previously (Coughenour L. L.; Cordon, J. J., J. Pharmacol. Exp. Ther., 1997;280:584-592) and stored at −80° C. On the day of the assay, pellets were resuspended in 35 mL of assay buffer at pH 7.4 using a Polytron setting 6. After incubation at 37° C. for 30 minutes in a shaking water bath, the homogenate was centrifuged 40,000×g for 10 minutes at 4° C. The pellets were resuspended in fresh buffer and centrifuged 3 more times before final suspension for use in the assay.
[^3H]Ifenprodil Binding. […] The filter mat was supported on a cold (−20° C.) teflon support, and filters from individual wells were separated and placed in Mini Poly-Q vials (Beckman Instruments Inc, Fullerton, Calif.) and filled with 4 mL of scintillation cocktail (Beckman Ready Protein^+). Radioactivity retained on the filter was determined by liquid scintillation spectrophotometry. […]
Data Analysis. Binding curves were statistically analyzed for a best one- or two-site competition fit using GraphPad Prism software (GraphPad Software Inc, San Diego, Calif.). […]

The target of a further data set is T2, NR1A/NR2B (Rattus norvegicus, UniProt P35439+Q00960).
T2 construct: expressed in transfected cells; host or cells: Xenopus laevis oocytes injected with cRNA
T2 sequence (Q00960 27-1482, other chains not shown): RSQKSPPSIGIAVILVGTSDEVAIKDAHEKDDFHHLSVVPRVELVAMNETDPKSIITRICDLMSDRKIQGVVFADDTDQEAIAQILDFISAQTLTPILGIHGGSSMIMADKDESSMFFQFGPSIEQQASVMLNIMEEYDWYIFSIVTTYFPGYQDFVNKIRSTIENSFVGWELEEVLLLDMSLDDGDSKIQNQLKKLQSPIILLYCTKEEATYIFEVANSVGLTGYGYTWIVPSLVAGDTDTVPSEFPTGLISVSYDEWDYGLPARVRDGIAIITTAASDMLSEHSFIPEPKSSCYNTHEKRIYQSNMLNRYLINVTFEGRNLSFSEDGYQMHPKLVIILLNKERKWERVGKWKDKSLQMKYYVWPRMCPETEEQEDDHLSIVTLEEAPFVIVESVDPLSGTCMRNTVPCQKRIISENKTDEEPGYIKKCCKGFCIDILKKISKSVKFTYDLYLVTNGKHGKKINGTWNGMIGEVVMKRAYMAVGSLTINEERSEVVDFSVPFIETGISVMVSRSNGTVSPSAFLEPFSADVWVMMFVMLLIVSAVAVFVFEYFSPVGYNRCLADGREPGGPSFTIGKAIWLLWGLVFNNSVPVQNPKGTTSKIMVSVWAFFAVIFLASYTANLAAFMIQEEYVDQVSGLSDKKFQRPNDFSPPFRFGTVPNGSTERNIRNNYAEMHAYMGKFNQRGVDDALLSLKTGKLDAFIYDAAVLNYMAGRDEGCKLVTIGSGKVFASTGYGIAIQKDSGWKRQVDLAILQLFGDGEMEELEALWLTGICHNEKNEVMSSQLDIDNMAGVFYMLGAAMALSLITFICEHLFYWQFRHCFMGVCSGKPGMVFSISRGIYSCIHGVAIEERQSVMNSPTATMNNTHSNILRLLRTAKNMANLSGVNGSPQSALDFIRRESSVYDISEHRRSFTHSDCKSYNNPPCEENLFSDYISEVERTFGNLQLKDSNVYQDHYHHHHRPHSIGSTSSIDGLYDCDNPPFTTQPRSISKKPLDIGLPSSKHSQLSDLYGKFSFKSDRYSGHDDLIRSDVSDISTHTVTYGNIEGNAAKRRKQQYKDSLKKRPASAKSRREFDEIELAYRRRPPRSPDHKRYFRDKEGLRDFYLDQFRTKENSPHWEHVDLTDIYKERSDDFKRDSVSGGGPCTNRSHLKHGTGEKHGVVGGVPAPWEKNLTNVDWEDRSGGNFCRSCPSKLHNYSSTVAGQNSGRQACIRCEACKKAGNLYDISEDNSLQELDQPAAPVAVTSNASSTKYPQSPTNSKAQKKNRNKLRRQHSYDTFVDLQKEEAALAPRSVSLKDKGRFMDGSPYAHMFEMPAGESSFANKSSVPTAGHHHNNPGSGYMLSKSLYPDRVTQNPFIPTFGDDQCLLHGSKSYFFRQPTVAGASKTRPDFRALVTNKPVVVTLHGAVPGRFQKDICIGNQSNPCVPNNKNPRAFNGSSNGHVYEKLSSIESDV
In words: Electrophysiological assay at NMDA receptor subunits expressed in Xenopus oocytes (two-electrode voltage clamp). It is filed as cell-based. As to conditions: cloned rat NR1A/NR2B in Xenopus oocytes; currents activated by glutamate (100 μM) and glycine (1-100 μM); read-out: NR1A/NR2B Oocyte IC50. The source says:
Preparation of RNA. cDNA clones encoding the NR1A, NR2A, NR2B, and NR2C rat NMDA receptor subtypes were used. (See Moriyoshi et al., Nature, (Lond.), 1991;354:31-37); Kutsuwada et al., Nature (Lond.), 1992;358:36-41; Monyer et al., Science (Washington, D.C.), 1992;256:1217-1221; Ikeda et al., FEBS Lett., 1992;313:34-38; Ishii et al., J. Biol. Chem., 1993;268:2836-2843 for details of these clones or their mouse homologs.) The clones were transformed into appropriate host bacteria, and plasmid preparations were made with conventional DNA purification techniques. A sample of each clone was linearized by restriction enzyme digestion […] was synthesized with T3 RNA polymerase. The cRNA was diluted to 400 ng/μL and stored in 1-μL aliquots at −80° C. until injection.
The Xenopus Oocyte Expression System. […]
Electrical recordings were made using a conventional two-electrode voltage clamp (Dagan TEV-200) over periods ranging between 3 to 21 days following injection (Woodward et al., Mol. Pharmacol., 1992;41:89-103). […] Inhibitory potency of the novel antagonists was assessed on responses elicited by fixed concentrations of glutamate and glycine, by measuring reductions in current induced by progressively increasing concentrations of antagonist. […]

Counter-ions that a name gives are not always drawn.

T1 sequence (Q00960 27-1482, other chains not shown): as above

What is called melting point is the temperature of the solid-liquid transition. `CN(CCCc1ccc(O)cc1)[C@H]1CC[C@H](c2ccccc2)CC1` (as salt: HCl) [Example 4, trans-4-{3-[Methyl-(4-phenylcyclohexyl)amino]propyl}phenol] returned a melting point of 249 to 255 °C. Turning to `Oc1ccc(CCN[C@H]2CC[C@H](c3ccccc3)CC2)cc1` (as salt: HCl) [Example 5, trans-4-[2-(4-Phenylcyclohexylamino)ethyl]phenol], the melting point is 238 to 241 °C. The molecule `CN(CCc1ccc(O)cc1)[C@H]1CC[C@H](c2ccccc2)CC1` (as salt: HCl) [Example 6, trans 4-{2-[Methyl(4-phenylcyclohexyl)amino]ethyl}phenol] had a melting point of 97 to 105 °C.

Molecule `Oc1ccc(CCCN[C@H]2CC[C@H](c3ccccc3)CC2)cc1` [Example 1b, trans4-[3-(4-Phenylcyclohexylamino)propyl]phenol] had a melting point of 211 to 214 °C. This molecule returned an IC50 in data set [1] of 0.084 µM.

In data set [1], `C[C@H](N[C@H]1CC[C@H](c2ccccc2)CC1)[C@@H](O)c1ccc(O)cc1` [Example 2a, trans 4-[(1S,2S)-1-Hydroxy-2-(4-phenylcyclohexylamino)propyl]phenol] yielded an IC50 of 1.29 µM. `C[C@H](N[C@H]1CC[C@@H](c2ccccc2)CC1)[C@@H](O)c1ccc(O)cc1` [Example 2b, cis-4-[(1S,2S)-1-Hydroxy-2-(4-phenylcyclohexylamino)propyl]phenol]: the values for the IC50 (on NR1A/NR2B; in data set [1]) were 0.15 µM and 0.045 µM, respectively.

These data come from patent US6765022B2, “Cyclohexylamine derivatives as subtype selective nmda receptor antagonists” (Warner-Lambert Company, priority 2000, dated 2004).
